Test results from patent US10954305B2 (Immunomedics, Inc., priority 2016, dated 2021).

Experiments:
NCI-N87-S120 = assay: in vitro cytotoxicity, MTS (Table 14); type: cell-based, human; settings: for RF (resistance factor): IC50 mean of NCI-N87-S120 / NCI-N87; for IC50: NCI-N87-S120, YHO-13351 2 μM, Ko143 1 μM where added
Method: (§1) Each cell line was maintained according to the recommendations of ATCC and routinely tested for mycoplasma using MYCOALERT™ mycoplasma detection kits (Lonza). The two SN-38-resistant cell lines, MDA-MB-231-5120 and NCI-N87-S120, were established by continuous exposure of the parental cells to stepwise increased concentrations of SN-38 from 6 pM to 120 nM over a period of approximately 2 years. In addition, a revertant cell line (NCI-N87-S120-REV) was obtained after culturing NCI-N87-S120 in SN-38-free medium for 4 months. The S-120 clones were maintained in medium containing 120 nM of SN-38, but cultured in drug-free medium for 7 to 14 days prior to any experiment. All cells were grown at 37° C. as monolayer cultures in a humidified atmosphere of 5% CO2.
(§2) In Vitro cytotoxicity. […] Briefly, cells were placed into wells of 96-well plates. […] From these working solutions, serial 5-fold dilutions were made in sterile media to yield final concentrations between 500 and 0.0064 nM in test wells. […] Cytotoxicity was measured as a percent of growth relative to untreated cells. Dose-response curves were generated from the mean of triplicate determinations, and IC50 values were calculated using GraphPad Prism Software V 6.05 (Advanced Graphics Software).
(§3) The effect of ABCG2 inhibitors on the IC50 values of SN-38 for the parental and resistant cell lines was determined from the respective dose-response curves obtained for SN-38 in the presence of a non-toxic concentration of ABCG2 inhibitors.

[1] = Weidner et al., 2015; cited from earlier work
p21^Waf1/Cip1 in BxPC-3 = assay: p21Waf1/Cip1 expression; type: cell-based, human
Description: SN-38 is known to activate several signaling pathways in cells, leading to apoptosis (e.g., Cusack et al., 2001, Cancer Res 61:3535-40; Liu et al. 2009, Cancer Lett 274:47-53; Lagadec et al., 2008, Br J Cancer 98:335-44). Our initial studies examined the expression of 2 proteins involved in early signaling events (p21^Waf1/Cip1 and p53) and 1 late apoptotic event [cleavage of poly-ADP-ribose polymerase (PARP)] in vitro (not shown).

p53 in BxPC-3 and Calu-3 = assay: p53 expression; type: cell-based, human
Method: In addition, p53 expression in cells exposed to the ADC was higher in both cell lines compared to SN-38 (not shown). […] In terms of later apoptotic events, cleavage of PARP was evident in both cell lines when incubated with either SN-38 or the conjugate (not shown). […] The higher degree of cleavage with free SN-38 over the ADC was consistent with the cytotoxicity findings.

[2] = tested on: p21^WAF1/Cip1 in MDA-MB-468; assay: immunoblotting of apoptotic pathway; type: cell-based, human; settings: by 48 h
Method: Cells (2×10^6) were plated in 6-well plates overnight. […] Parental hRS7 was used as a control for the ADC.

MDA-MB-231-S120 = assay: in vitro cytotoxicity, MTS (Table 14); type: cell-based, human; settings: for RF (resistance factor): IC50 mean of MDA-MB-231-S120 / MDA-MB-231; for IC50: MDA-MB-231-S120, YHO-13351 2 μM where added
Method: as §1, §2, §3

MDA-MB-231 [3] = assay: in vitro cytotoxicity, MTS (Table 14); type: cell-based, human; settings: YHO-13351 2 μM where added
Method: as §1, §2, §3

NCI-N87-S120-REV = assay: in vitro cytotoxicity, MTS; type: cell-based, human; settings: revertant after 4 months in SN-38-free medium
Method: as §1, §2

MDA-MB-231 [4] = assay: double-strand breaks, γH2AX; type: cell-based, human; settings: 250 nM, after 3 h
Method: (§4) Cells (5×10^5 cells/mL per sample) were incubated with or without SN-38 (250 nM) at 37° C. for the indicated times, fixed in 4% formalin for 15 min, then washed and permeabilized in 0.15% TRITON™ X-100 in PBS for 15 min. After washing twice with 1% bovine serum albumin-PBS, the cells were incubated with murine anti-γH2AX-AF488 for 45 min at 4° C. The signal intensity of γH2AX was measured by flow cytometry using a FACSCALIBUR™ (BD Biosciences).

NCI-N87 [5] = assay: double-strand breaks, γH2AX; type: cell-based, human; settings: 250 nM, after 3 h
Method: as §4

NCI-N87 [6] = assay: in vitro cytotoxicity, MTS (Table 14); type: cell-based; settings: Homo sapiens, YHO-13351 2 μM, Ko143 1 μM where added
Method: as §1
In Vitro cytotoxicity. […] Briefly, cells were placed into wells of 96-well plates. […] Cytotoxicity was measured as a percent of growth relative to untreated cells. Dose-response curves were generated from the mean of triplicate determinations, and IC50 values were calculated using GraphPad Prism Software V 6.05 (Advanced Graphics Software).
as §3

sublines of PC-6 = settings: Kawabata et al., 2001; cited from earlier work
sublines of HeLa = settings: Takara et al., 2009; cited from earlier work
subline of H23 = settings: Bessho et al., 2006; cited from earlier work

## COc1ccc2c3c([nH]c2c1)[C@H](CC(C)C)N1C(=O)[C@H](CCC(=O)OC(C)(C)C)NC(=O)[C@@H]1C3 [Ko143]
NCI-N87-S120; both S-120 cells, in vitro
  effect on SN-38 toxicity in S-120 cells: restored toxicity of SN-38
[1]
  stability in rat serum: instability

## CCc1c2c(nc3ccc(O)cc13)-c1cc3c(c(=O)n1C2)COC(=O)[C@]3(O)CC [SN-38, 7-ethyl-10-hydroxycamptothecin]
p21^Waf1/Cip1 in BxPC-3
  increase in p21^Waf1/Cip1 expression: 20 fold
p53 in BxPC-3 and Calu-3
  time to upregulation of p53: 48 h
[2]
  decrease of p21^WAF1/Cip1: 31%
MDA-MB-231-S120
  RF (resistance factor): 51.7
  IC50: 248 ± 79 nM
MDA-MB-231 [3]
  IC50: 4.8 ± 1.7 nM
NCI-N87-S120
  RF (resistance factor): 49.1
  IC50: 211 ± 39 nM
NCI-N87-S120; both S-120 cells
  resistance of S-120 cells vs parental cells: about 50 fold
NCI-N87-S120-REV
  IC50: 50 nM
MDA-MB-231 [4]
  increase of γH2AX over untreated controls: about 2 fold
NCI-N87 [5]
  increase of γH2AX over untreated controls: about 4 fold

## COc1cccc2c1C(=O)c1c(O)c3c(c(O)c1C2=O)C[C@@](O)(C(=O)CO)C[C@@H]3O[C@H]1C[C@H](N)[C@H](O)[C@H](C)O1 [Doxorubicin]
NCI-N87 [6]
  IC50: 32.2 ± 7.5 nM
MDA-MB-231-S120; Homo sapiens
  IC50: 43.1 ± 4.6 nM
MDA-MB-231-S120
  RF (resistance factor): 4.0
MDA-MB-231 [3]; Homo sapiens
  IC50: 10.9 ± 0.6 nM
NCI-N87-S120; Homo sapiens
  IC50: 74.6 ± 3.3 nM
NCI-N87-S120
  RF (resistance factor): 2.3
Sublines of PC-6
  resistance ratio: less than 1.3
Sublines of HeLa
  resistance ratio: 2.5
Subline of H23
  resistance ratio: about 7.0
